# Where “and” joins values, the source holds several entries; their conditions need not be identical. Identical values can stand only once. Entries after “also recorded” stand apart in the source; their conditions may differ. Like-named read-outs stand apart in the source and are kept apart here.
# What was measured:
# [1] = tested on: Salmonella typhimurium and E. coli strains; experiment: Bacterial reverse mutation test; type: cell-based; conditions: rat liver S9, solvent water
# TA1535 = conditions: cited from earlier work
# bacterial mutagenicity = conditions: cited from earlier work
# [2] = tested on: Salmonella typhimurium TA100; experiment: Bacterial reverse mutation test; type: cell-based; conditions: for mutagenic response (increase in mutation frequencies): with rat liver S9, preincubation and plate incorporation
# [3] = tested on: Salmonella typhimurium TA1535; experiment: Bacterial reverse mutation test; type: cell-based; conditions: for fold increase in mutation frequencies: rat liver S9, 5000 μg/plate; for mutagenic response (increase in mutation frequencies): with rat liver S9, preincubation and plate incorporation
# E. coli WP2 uvrA = experiment: Bacterial reverse mutation test; type: cell-based; conditions: for mutagenic response (increase in mutation frequencies): with rat liver S9, preincubation and plate incorporation
# TA98 = experiment: Bacterial reverse mutation test; type: cell-based, Salmonella typhimurium; conditions: under any condition (preincubation or plate incorporation, with or without S9)
# TA1537 = experiment: Bacterial reverse mutation test; type: cell-based, Salmonella typhimurium; conditions: under any condition (preincubation or plate incorporation, with or without S9)
# [4] = plate incorporation, solvent DMSO, rat liver S9, at 5000 μg/plate only
# [5] = preincubation, solvent water, rat liver S9, 5000 μg/plate
compound,measurement,setting,value
"CN(C)N=O [NDMA, N-nitrosodimethylamine]",detection of mutagenicity,[1]; plate incorporation protocol,fails; also recorded: no clear positive response
same,detection of mutagenicity,[1]; preincubation protocol,allows the detection of mutagenicity
same,mutagenicity,TA1535; hamster S9,mutagenic
same,mutagenicity,TA1535; rat S9,not with rat S9
same,detection of bacterial mutagenicity,bacterial mutagenicity; plate incorporation,failed
same,detection of bacterial mutagenicity,bacterial mutagenicity; preincubation protocol,allowed to detect
"CCN(CC)N=O [NDEA, N-nitrosodiethylamine]",fold increase in mutation frequencies (above threshold),[2]; [4],> 2 fold
same,fold change with water compared with DMSO as solvent,"[2]; preincubation, rat liver S9",no change
same,fold increase in mutation frequencies,[2]; [5],about 4 fold
same,mutagenic response (increase in mutation frequencies),[2],exponential increase in mutation frequencies
same,fold increase in mutation frequencies (above threshold),[3]; [4],> 3 fold
same,fold change with water compared with DMSO as solvent,"[3]; preincubation, rat liver S9",slightly increased fold changes; also recorded: slightly higher mutation frequencies
same,fold increase in mutation frequencies,"[3]; preincubation, solvent DMSO",~5 fold and 4 fold
same,fold increase in mutation frequencies,"[3]; preincubation, solvent water",~9 fold
same,mutagenic response (increase in mutation frequencies),[3],exponential increase in mutation frequencies
same,fold increase in mutation frequencies,"E. coli WP2 uvrA; plate incorporation, solvent DMSO, rat liver S9, top concentration 5000 μg/plate",12 fold
same,fold change with water compared with DMSO as solvent,"E. coli WP2 uvrA; preincubation, rat liver S9",slightly increased fold changes; also recorded: slightly higher mutation frequencies
same,fold increase in mutation frequencies,"E. coli WP2 uvrA; preincubation, solvent DMSO, rat liver S9, 5000 μg/plate",~30 fold
same,fold increase in mutation frequencies,E. coli WP2 uvrA; [5],~39 fold
same,mutagenic response (increase in mutation frequencies),E. coli WP2 uvrA,exponential increase in mutation frequencies
same,mutagenic response,TA98,no response
same,mutagenic response,TA1537,no response
same,mutagenicity,TA1535; hamster S9,mutagenic
same,mutagenicity,TA1535; rat S9,not with rat S9
"CCCCN(CCCC)N=O [NDBA, N-nitrosodibutylamine]",mutagenic response (increase in mutation frequencies),[2],relevant increases
same,"fold induction, plate incorporation compared with preincubation","[3]; rat liver S9, solvent DMSO",higher fold inductions using the plate incorporation protocol
same,mutagenic response (increase in mutation frequencies),[3],relevant increases
same,"fold induction, plate incorporation compared with preincubation","E. coli WP2 uvrA; rat liver S9, solvent DMSO",higher fold inductions using the plate incorporation protocol
same,mutagenic response (increase in mutation frequencies),E. coli WP2 uvrA,relevant increases
"CCCN(CCC)N=O [NDPA, N-nitrosodipropylamine]",mutagenic response (increase in mutation frequencies),[2],relevant increases
same,mutagenic response (increase in mutation frequencies),[3],relevant increases
same,mutagenic response (increase in mutation frequencies),E. coli WP2 uvrA,relevant increases
